Measurements reported in US8853258B2, “C-linked hydroxamic acid derivatives useful as antibacterial agents” (Pfizer Inc., priority 2009, dated 2014).
Converted amounts (≈) assume the structure as drawn. Like-named read-outs stand apart in the source and are kept apart here.

How the values were obtained:
[1] = biological target: Pseudomonas aeruginosa LpxC enzyme (Pseudomonas aeruginosa (strain ATCC 15692 / DSM 22644 / CIP 104116 / JCM 14847 / LMG 12228 / 1C / PRS 101 / PAO1), UniProt P47205); experiment: IC50 Assay, LpxC Enzyme from P. aeruginosa (PA LpxC Enzyme IC50); assay type: biochemical
Procedure: In order to assess the compounds biological activity, selected in-vitro assays were conducted on selected compounds. One of the assays measured the compounds ability to disrupt the synthesis of lipopolysaccharide, LPS, which is a component of the outer membrane of Gram-negative bacteria. Disruption of this synthesis is lethal to the bacteria. The assay determined the compound's ability to inhibit LpxC, which is the first enzyme in the biosynthetic pathway for LPS (measured as IC50). Additionally, MICs (minimal inhibitory concentrations) were determined for several bacteria. The specific protocols are described below:
A) IC50 Assay, LpxC Enzyme from P. aeruginosa (Labled as PA LpxC Enzyme IC50
At the end of 1 hour, 5 ul of 1N HCl was added to stop the enzyme reaction; the plates were centrifuged, and then processed with the BioTrove Rapidfire HTMS Mass Spectrometry System. A no-enzyme control was used in calculating the IC50 values from the percent conversion values.

[2] = test system: Acinetobacter baumanii/haemolyticus: Multidrug-resistant clinical isolate (AB-3167); experiment: MIC determination (CLSI), AB-3167; assay type: cell-based; settings: for MIC: Acinetobacter baumannii
Outline: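 Multidrug-resistant clinical isolate AB-3167 (A. baumannii/haemolyticus) tested for minimum inhibitory concentration following CLSI dilution susceptibility standards M7-A7 and M100-S18.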

[3] = test system: Escherichia coli EC-1: VOGEL, mouse virulent; experiment: MIC determination (CLSI), EC-1; assay type: cell-based; settings: for MIC: Escherichia coli
Outline: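 E. coli Vogel, a mouse-virulent strain (EC-1), was tested. MICs were set by dilution susceptibility testing per CLSI standards M7-A7/M100-S18.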

[4] = test system: Pseudomonas aeruginosa UI-18: Wild-type (PA-7); experiment: MIC determination (CLSI), PA-7; assay type: cell-based; settings: for MIC: Pseudomonas aeruginosa
Outline: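 Wild-type P. aeruginosa UI-18 tested for minimum inhibitory concentration. Broth/agar dilution following CLSI standards (M7-A7, M100-S18).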

[5] = test system: Klebsiella pneumoniae: Ciprofloxacin-resistant isolate, ESBL, clinical isolate (KP-3700); experiment: MIC determination (CLSI), KP-3700; assay type: cell-based
Outline: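 Strain KP-3700, a clinical isolate producing extended-spectrum β-lactamases and resistant to ciprofloxacin, was tested. Minimum inhibitory concentrations determined via CLSI dilution methodology (M7-A7; M100-S18).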

[6] = P. aeruginosa LpxC enzyme, read-out: PA LpxC enzyeme IC50
[7] = Acinetobacter baumanii/haemolyticus multidrug-resistant clinical isolate AB-3167
[8] = Escherichia coli EC-1 VOGEL, mouse virulent
[9] = Pseudomonas aeruginosa UI-18 wild-type PA-7
[10] = Table 3, read-out: PA LpxC enzyeme IC^50
[11] = Table 1, MIC, read-out: AB-3167 (MIC)
[12] = Table 1, MIC, read-out: PA-7 (MIC)
[13] = Acinetobacter baumanii/haemolyticus AB-3167
[14] = Pseudomonas aeruginosa UI-18 (PA-7)

Cc1cc(-c2ccc(CCC(C)(C(=O)NO)S(C)(=O)=O)cc2)ccc1C#N (centres unmarked) [Example 109]
IC50 [1, 6]: 0.144 nM
AB-3167 MIC [2, 7]: 32 mg/L
EC-1 MIC [3, 8]: 0.5 mg/L
PA-7 MIC [4, 9]: 2 mg/L
KP-3700 MIC [5]: 2 mg/L

CC(C)CCc1noc(COc2ccc(CCC(C)(C(=O)NO)S(C)(=O)=O)cc2)n1 (centres unmarked) [Example 272, N-hydroxy-2-methyl-4-(4-{[3-(3-methylbutyl)-1,2,4-oxadiazol-5-yl]methoxy}phenyl)-2-(methylsulfonyl)butanamide]
IC50 [1, 10]: 1.54 nM
MIC ([2]; Table 3, read-out: AB-3167 MIC): ≥ 64 µg/mL
MIC ([3]; read-out: EC-1 MIC): 32 µg/mL (≈ 72.8 µM)
MIC ([4]; Table 3, read-out: PA-7 MIC): ≥ 64 µg/mL
KP-3700 MIC [5]: ≧64 mg/L

CC(CCc1ccc(-c2cccc(F)c2)cc1)(C(=O)NO)S(C)(=O)=O (centres unmarked) [Example 42]
IC50 [1, 6]: 0.335 nM
AB-3167 MIC [2, 7]: ≧64 mg/L
EC-1 MIC [3, 8]: 2 mg/L
PA-7 MIC [4, 9]: 0.5 mg/L
KP-3700 MIC [5]: 4 mg/L

CC(CCc1ccc(OCc2nc(-c3ccccc3)no2)cc1)(C(=O)NO)S(C)(=O)=O (centres unmarked) [Example 308, N-hydroxy-2-methyl-2-(methylsulfonyl)-4-{4-[(3-phenyl-1,2,4-oxadiazol-5-yl)methoxy]phenyl}butanamide]
IC50 [1, 10]: 2.56 nM
MIC ([2]; Table 3, read-out: AB-3167 MIC): ≥ 64 µg/mL
MIC ([3]; read-out: EC-1 MIC): 4 µg/mL (≈ 8.98 µM)
MIC ([4]; Table 3, read-out: PA-7 MIC): 32 µg/mL (≈ 71.8 µM)
KP-3700 MIC [5]: 16 mg/L

CC(CCc1ccc(OCc2nc(-c3cccnc3)no2)cc1)(C(=O)NO)S(C)(=O)=O (centres unmarked) [Example 305, N-hydroxy-2-methyl-2-(methylsulfonyl)-4-{4-[(3-pyridin-3-yl-1,2,4-oxadiazol-5-yl)methoxy]phenyl}butanamide]
IC50 [1, 10]: 7.53 nM
MIC ([2]; Table 3, read-out: AB-3167 MIC): ≥ 64 µg/mL
MIC ([3]; read-out: EC-1 MIC): 32 µg/mL (≈ 71.7 µM)
MIC ([4]; Table 3, read-out: PA-7 MIC): 32 µg/mL (≈ 71.7 µM)
KP-3700 MIC [5]: ≧64 mg/L

CC(CCc1ccc(OCc2ccccn2)cc1)(C(=O)NO)S(C)(=O)=O (racemic) [Example 16, (+/−)-N-Hydroxy-2-methyl-2-(methylsulfonyl)-4-[4-(pyridin-2-ylmethoxy)phenyl]butanamide]
IC50 ([1]; PA LpxC enzyeme IC50, Table 1): 5.01 nM
MIC [2, 11]: ≥ 64 µg/mL
MIC ([3]; read-out: EC-1: (MIC)): ≥ 64 µg/mL
MIC [4, 12]: 16 µg/mL (≈ 42.3 µM)
KP-3700 MIC [5]: ≧64 mg/L

CC(CCc1ccc(OCCC2CCOCC2)cc1)(C(=O)NO)S(C)(=O)=O (centres unmarked) [Example 281, N-hydroxy-2-methyl-2-(methylsulfonyl)-4-{4-[2-(tetrahydro-2H-pyran-4-yl)ethoxy]phenyl}butanamide]
IC50 [1, 10]: 6.77 nM
MIC ([2]; Table 3, read-out: AB-3167 MIC): ≥ 64 µg/mL
MIC ([3]; read-out: EC-1 MIC): ≥ 64 µg/mL
MIC ([4]; Table 3, read-out: PA-7 MIC): 32 µg/mL (≈ 80.1 µM)
KP-3700 MIC [5]: ≧64 mg/L

COc1cc(CCC(C)(C(=O)NO)S(C)(=O)=O)ccc1-c1ccccc1 (centres unmarked) [Example 171]
IC50 [1, 6]: 14.6 nM
AB-3167 MIC [2, 7]: ≧64 mg/L
EC-1 MIC [3, 8]: 4 mg/L
PA-7 MIC [4, 9]: 32 mg/L
KP-3700 MIC [5]: 16 mg/L

C[C@@](CCc1ccc(-c2ccc(OP(=O)(O)O)cc2)cc1)(C(=O)NO)S(C)(=O)=O [Example 6, 4′-[(3R)-4-(Hydroxyamino)-3-methyl-3-(methylsulfonyl)-4-oxobutyl]biphenyl-4-yl dihydrogen phosphate]
IC50 ([1]; Table 1, read-out: PA LpxC enzyeme IC50): 88.1 nM
MIC ([2]; read-out: AB-3167 (MIC)): ≥ 64 µg/mL
MIC ([3]; read-out: EC-1: (MIC)): ≥ 64 µg/mL
MIC ([4]; read-out: PA-7 (MIC)): ≥ 64 µg/mL
KP-3700 MIC ([5]; Table 1, MIC): ≧64 mg/L

Cc1ccc(Cc2noc(COc3ccc(CCC(C)(C(=O)NO)S(C)(=O)=O)cc3)n2)cc1 (centres unmarked) [Example 283, N-hydroxy-2-methyl-4-(4-{[3-(4-methylbenzyl)-1,2,4-oxadiazol-5-yl]methoxy}phenyl)-2-(methylsulfonyl)butanamide]
IC50 [1, 10]: 6.32 nM
MIC ([2]; Table 3, read-out: AB-3167 MIC): ≥ 64 µg/mL
MIC ([3]; read-out: EC-1 MIC): 16 µg/mL (≈ 33.8 µM)
MIC ([4]; Table 3, read-out: PA-7 MIC): ≥ 64 µg/mL
KP-3700 MIC [5]: ≧64 mg/L

CC(CCc1ccc(-c2ccccc2Cl)cc1)(C(=O)NO)S(C)(=O)=O (centres unmarked) [Example 81]
IC50 [1, 6]: 0.448 nM
AB-3167 MIC [2, 7]: 32 mg/L
EC-1 MIC [3, 8]: 2 mg/L
PA-7 MIC [4, 9]: 1 mg/L
KP-3700 MIC [5]: 8 mg/L

CC(CCc1ccc(OCc2ccc(C(F)(F)F)cc2)cc1)(C(=O)NO)S(C)(=O)=O (centres unmarked) [Example 301, N-hydroxy-2-methyl-2-(methylsulfonyl)-4-(4-{[4-(trifluoromethyl)benzyl]oxy}phenyl)butanamide]
IC50 [1, 10]: 2.08 nM
MIC ([2]; Table 3, read-out: AB-3167 MIC): 4 µg/mL (≈ 8.98 µM)
MIC ([3]; read-out: EC-1 MIC): 4 µg/mL (≈ 8.98 µM)
MIC ([4]; Table 3, read-out: PA-7 MIC): 8 µg/mL (≈ 18 µM)
KP-3700 MIC [5]: 8 mg/L

C[C@@](CCc1ccc(-c2cnc3ccccc3c2)cc1)(C(=O)NO)S(C)(=O)=O [Example 201]
IC50 [1, 6]: 0.24 nM
AB-3167 MIC [2, 13]: ≧64 mg/L
EC-1 MIC ([3]; Escherichia coli EC-1): 1 mg/L
PA-7 MIC [4, 14]: 2 mg/L
KP-3700 MIC [5]: 8 mg/L

CC(CCc1ccc(OCc2ccc(Cl)cc2F)cc1)(C(=O)NO)S(C)(=O)=O (centres unmarked) [Example 307, 4-{4-[(4-chloro-2-fluorobenzyl)oxy]phenyl}-N-hydroxy-2-methyl-2-(methylsulfonyl)butanamide]
IC50 [1, 10]: 0.393 nM
MIC ([2]; Table 3, read-out: AB-3167 MIC): 16 µg/mL (≈ 37.2 µM)
MIC ([3]; read-out: EC-1 MIC): 2 µg/mL (≈ 4.65 µM)
MIC ([4]; Table 3, read-out: PA-7 MIC): 4 µg/mL (≈ 9.3 µM)
KP-3700 MIC [5]: 8 mg/L

CC(CCc1ccc(-c2ccc(F)cc2)cc1O)(C(=O)NO)S(C)(=O)=O (racemic) [Example 19, (+/−)-4-(4′-Fluoro-3-hydroxybiphenyl-4-yl)-N-hydroxy-2-methyl-2-(methylsulfonyl)butanamide]
IC50 ([1]; PA LpxC enzyeme IC50, Table 1): 3.43 nM
MIC [2, 11]: ≥ 64 µg/mL
MIC ([3]; read-out: EC-1: (MIC)): 8 µg/mL (≈ 21 µM)
MIC [4, 12]: 16 µg/mL (≈ 41.9 µM)
KP-3700 MIC [5]: 32 mg/L

CC(CCc1ccc(-c2ccc3[nH]ccc3c2)cc1)(C(=O)NO)S(C)(=O)=O (centres unmarked) [Example 57]
IC50 [1, 6]: 0.295 nM
AB-3167 MIC [2, 7]: 8 mg/L
EC-1 MIC [3, 8]: 0.5 mg/L
PA-7 MIC [4, 9]: 0.5 mg/L
KP-3700 MIC [5]: 8 mg/L

CC(CCc1ccc(-c2ccc(CCO)cc2)cc1)(C(=O)NO)S(C)(=O)=O (centres unmarked) [Example 34]
IC50 [1, 6]: 0.331 nM
AB-3167 MIC [2, 7]: ≧64 mg/L
EC-1 MIC [3, 8]: 4 mg/L
PA-7 MIC [4, 9]: 4 mg/L
KP-3700 MIC [5]: 8 mg/L

CC(CCc1ccc(OCc2cccc(F)c2F)cc1)(C(=O)NO)S(C)(=O)=O (centres unmarked) [Example 247, 4-{4-[(2,3-difluorobenzyl)oxy]phenyl}-N-hydroxy-2-methyl-2-(methylsulfonyl)butanamide]
IC50 [1, 10]: 0.325 nM
MIC ([2]; Table 3, read-out: AB-3167 MIC): 16 µg/mL (≈ 38.7 µM)
MIC ([3]; read-out: EC-1 MIC): 2 µg/mL (≈ 4.84 µM)
MIC ([4]; Table 3, read-out: PA-7 MIC): 2 µg/mL (≈ 4.84 µM)
KP-3700 MIC [5]: 16 mg/L

CC(C)CCOc1ccc(CCC(C)(C(=O)NO)S(C)(=O)=O)cc1 (centres unmarked) [Example 292, N-hydroxy-2-methyl-4-[4-(3-methylbutoxy)phenyl]-2-(methylsulfonyl)butanamide]
IC50 [1, 10]: 1.11 nM
MIC ([2]; Table 3, read-out: AB-3167 MIC): 16 µg/mL (≈ 44.8 µM)
MIC ([3]; read-out: EC-1 MIC): 16 µg/mL (≈ 44.8 µM)
MIC ([4]; Table 3, read-out: PA-7 MIC): 8 µg/mL (≈ 22.4 µM)
KP-3700 MIC [5]: ≧64 mg/L

Cc1cccc(-c2nc(COc3ccc(CCC(C)(C(=O)NO)S(C)(=O)=O)cc3)c(C)o2)c1 (centres unmarked) [Example 278, N-hydroxy-2-methyl-4-(4-{[5-methyl-2-(3-methylphenyl)-1,3-oxazol-4-yl]methoxy}phenyl)-2-(methylsulfonyl)butanamide]
IC50 [1, 10]: 10.4 nM
MIC ([2]; Table 3, read-out: AB-3167 MIC): ≥ 64 µg/mL
MIC ([3]; read-out: EC-1 MIC): 32 µg/mL (≈ 67.7 µM)
MIC ([4]; Table 3, read-out: PA-7 MIC): ≥ 64 µg/mL
KP-3700 MIC [5]: ≧64 mg/L

Cc1oc(-c2ccccc2F)nc1COc1ccc(CCC(C)(C(=O)NO)S(C)(=O)=O)cc1 (centres unmarked) [Example 251, 4-(4-{[2-(2-fluorophenyl)-5-methyl-1,3-oxazol-4-yl]methoxy}phenyl)-N-hydroxy-2-methyl-2-(methylsulfonyl)butanamide]
IC50 [1, 10]: 21.6 nM
MIC ([2]; Table 3, read-out: AB-3167 MIC): ≥ 64 µg/mL
MIC ([3]; read-out: EC-1 MIC): 32 µg/mL (≈ 67.2 µM)
MIC ([4]; Table 3, read-out: PA-7 MIC): ≥ 64 µg/mL
KP-3700 MIC [5]: ≧64 mg/L

CC(CCc1ccc(-c2ccc(N)nc2)c(F)c1)(C(=O)NO)S(C)(=O)=O (centres unmarked) [Example 206]
IC50 [1, 6]: 23.5 nM
AB-3167 MIC [2, 13]: ≧64 mg/L
EC-1 MIC ([3]; Escherichia coli EC-1): ≧64 mg/L
PA-7 MIC [4, 14]: 16 mg/L
KP-3700 MIC [5]: ≧64 mg/L
